Laboratory results as given in patent US8815221B2, “Composition used for skin whitening, plant extracted skin whitening composition and composition having a skin whitening effect” (Industrial Technology Research Institute, priority 2009, dated 2014).
Where “and” joins values, the source holds several entries; their conditions need not be identical. Identical values can stand only once.

Key:
Tyrosinase (Sigma T3824) = target: T1, Tyrosinase (Sigma T3824) (Agaricus bisporus, UniProt C7FF04); experiment: Tyrosinase inhibition test; format: biochemical; conditions: L-Dopa substrate; for IC50: read-out: 50% tyrosinase inhibitory concentration (IC50) (converted); for Tyrosinase inhibiting rate (%) (100 μg/ml) / inhibition at 100 µg/mL: concentration of 100 μg/ml; for inhibition at 100 µg/mL: read-out: Tyrosinase inhibiting rate (%) (100 μg/ml); for inhibition at 125 µg/mL: concentration of 125 μg/ml, read-out: Tyrosinase inhibiting rate
T1 construct: purchased Sigma T3824
Protocol: Tyrosinase Inhibition Test
1. A tyrosinase solution using Tyrosinase (Sigma T3824) was prepared, wherein after diluted with a 0.1 M phosphate buffer, a 0.1 U/μl tyrosinase solution was obtained.
2. A L-Dopa solution using L-Dopa (Sigma D9628) was prepared, wherein after diluted with a 0.1 M phosphate buffer, a 1 mM L-Dopa solution was obtained and then was placed a dark environment.
3. A test sample solution was prepared comprising 10 mg/ml of a sample solution diluted with 100% of DMSO. Then the test sample solution was further diluted for require concentrations using a 0.1 M phosphate buffer.
4. 50 μl/well of the prepared test sample solution mentioned above was added into the wells of a 96 well plate (note that the same diluted concentration of DMSO for the test sample solution was also added into the wells of a 96 well plate and used for the blank group) and then 90 μl/well of the prepared 0.1 U/μl tyrosinase solution mentioned above was added thereto (the dC control group was added the 0.1 M phosphate buffer but not the 0.1 U/μl tyrosinase solution). The 96 well plate was placed under a temperature of 37° C. and mixed at 450 rpm for 5 minutes and then placed in an ELISA reader (Molecular Devices M2). The wave length of the ELISA reader was set at 492 nm to determine absorbance values of the solutions in the 96 well plate, wherein two absorbance values were determined and the average value therefrom was used as a background value. Next, 60 μl/well of the prepared 1 mM L-Dopa solution mentioned above was added to the 96 well plate (the dD control group was added the 0.1 M phosphate buffer not the 1 mM L-Dopa solution) and then the 96 well plate was placed under a temperature of 37° C. in a dark environment and mixed at 450 rpm for 15 minutes and then placed in a ELISA reader (Molecular Devices M2). The wave length of the ELISA reader was set at 492 nm to determine absorbance values of the solutions in the 96 well plate, wherein two absorbance values were determined and the average value therefrom was used as a measurement value. After the background value was subtracted from the measurement value, the tyrosinase inhibiting rate of the sample was calculated. The formula for calculating the tyrosinase inhibiting rate of the sample is shown in the following: (A−A0)−(B−B0)−dC−dD/(A−A0)×100% […]
A: absorbance value of the blank group
B: absorbance value of the sample
A0: background value of the blank group
B0: background value of the sample dC: absorbance variation for the sample only reacted with the L-Dopa dD: absorbance variation for the sample only reacted with the tyrosinase

Mouse melanoma B16-F0 = experiment: Melanin inhibition test (melanin content analysis); format: cell-based; conditions: concentration of 100 μg/ml, B16 cells, 48 hours, read-out: Melanin content inhibiting rate
Protocol: Mouse melanoma B16-F0 (ATCC CRL-6322, bought from Food Industry Research and Development Institute (FIRDI) (331 Shih-Pin Road, Hsinchu, 300 Taiwan R.O.C.)) was cultured in a medium (Dulbecco's MEM, DMEM) containing 10% fetal bovine serum and 1% penicillin-streptomycin under a temperature of 37° C., in a 5% CO2 incubator.
2. Melanin Content Analysis
Inhibition of B16 Cell Melanin by Extracts:
After a test sample was added to the B16 cells in the medium for 48 hours, the medium was removed. The B16 cells were washed twice with the PBS buffer and then 300 μl of a 1N NaOH which was preheated at a temperature of 70° C. was added to the B16 cells and the B16 cells were, placed in a 60° C. incubator for 60 minutes. Next, 200 μl of the 1N NaOH which had been added to the B16 cells mention above was added to a 96 well plate to determined the absorbance value at 405 nm. The formula for calculating the melanin content is shown in the following: Melanin content=(M/M0)×100%
M: absorbance value for B16 cells being treated with sample
M0: absorbance value for B16 cells not being treated with sample

T1 sequence (C7FF04 1-392 limits assumed): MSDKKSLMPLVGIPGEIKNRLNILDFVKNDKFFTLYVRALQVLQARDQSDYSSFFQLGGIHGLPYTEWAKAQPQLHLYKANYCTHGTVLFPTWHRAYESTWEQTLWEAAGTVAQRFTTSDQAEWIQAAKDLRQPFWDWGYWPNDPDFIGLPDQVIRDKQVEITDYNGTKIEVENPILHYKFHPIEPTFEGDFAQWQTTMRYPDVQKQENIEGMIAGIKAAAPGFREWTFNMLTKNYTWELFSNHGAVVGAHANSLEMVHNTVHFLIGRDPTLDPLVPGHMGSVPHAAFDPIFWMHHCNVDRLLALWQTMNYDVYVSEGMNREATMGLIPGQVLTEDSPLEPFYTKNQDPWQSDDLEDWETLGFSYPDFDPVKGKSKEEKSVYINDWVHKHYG

O=C(/C=C/c1ccc(O)cc1)NCCCCN(CCCNC(=O)/C=C/c1ccc(O)cc1)C(=O)/C=C/c1ccc(O)cc1 [Compound 1]
IC50 (Tyrosinase (Sigma T3824)): < 63.4 µM and 62 µM
Tyrosinase inhibiting rate (%) (100 μg/ml) (Tyrosinase (Sigma T3824)): 61.2 ± 2.5%
Tyrosinase inhibiting rate (%) (100 μg/ml) (Tyrosinase (Sigma T3824); listed as compound 1): about 61.2±2.5%
inhibition at 100 µg/mL (Tyrosinase (Sigma T3824)): ~62%
inhibition at 100 µg/mL (Mouse melanoma B16-F0): ~19.9%

COc1cc(/C=C/C(=O)NCCCCN(CCCNC(=O)/C=C/c2ccc(O)c(OC)c2)C(=O)/C=C/c2ccc(O)c(OC)c2)ccc1O [Compound 2]
IC50 (Tyrosinase (Sigma T3824)): 335 µM
inhibition at 100 µg/mL (Tyrosinase (Sigma T3824)): 15 ± 1.7%
inhibition at 125 µg/mL (Tyrosinase (Sigma T3824)): 29.2 ± 2%

O=C(/C=C/c1ccccc1O)NCCCCN(CCCNC(=O)/C=C/c1ccccc1O)C(=O)/C=C/c1ccccc1O [Compound 3]
IC50 (Tyrosinase (Sigma T3824)): 752 µM
inhibition at 100 µg/mL (Tyrosinase (Sigma T3824)): 10.4 ± 0.1%
inhibition at 125 µg/mL (Tyrosinase (Sigma T3824)): 13.2 ± 1.1%

O=C(/C=C/c1ccc(O)c(O)c1)NCCCCN(CCCNC(=O)/C=C/c1ccc(O)c(O)c1)C(=O)/C=C/c1ccc(O)c(O)c1 [Compound 4]
IC50 (Tyrosinase (Sigma T3824)): 29.4 µM and < 30.1 µM
Tyrosinase inhibiting rate (%) (100 μg/ml) (Tyrosinase (Sigma T3824); listed as Structure (III)): about 63%
inhibition at 100 µg/mL (Tyrosinase (Sigma T3824)): 62.2 ± 27.2%
inhibition at 125 µg/mL (Tyrosinase (Sigma T3824)): 74.5 ± 16.1%
